From US9346761B2, “Arginine methyltransferase inhibitors and uses thereof” (Epizyme, Inc., priority 2013, dated 2016) come the findings set out here.

Assay [1] concerns mono-methyl arginine in RKO cells. Description: RKO methylation assay, In Cell Western for mono-methyl arginine and DNA content. In kind it is cell-based. The settings on record: Homo sapiens.
Assay [2] has as its target T1, Full-length human PRMT8 (Homo sapiens, UniProt Q9NR22).
T1 construct: Full-length human PRMT8 (NM_019854.4) isoform 1 transcript clone; made in house
Description: PRMT8 biochemical assay (3H-SAM Flashplate, peptide substrate). In a few lines: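 Methylation of a biotinylated H4 (31-45) peptide by ³H-SAM was counted after streptavidin Flashplate capture. Purified recombinant PRMT8 and compound were preincubated 30 min at room temperature in Bicine buffer pH 7.6 with TCEP, BSG and Tween 20, and reactions were stopped with unlabeled SAM (final 400 μM). Inhibition versus DMSO and SAH controls was fit by 3- or 4-parameter curves.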

Where [3] appears, read: In Cell Western, RKO cells, 72 hours, percent activation of mono-methyl arginine signal, read-out: EC30.

Like-named read-outs stand apart in the source and are kept apart here. Some results are limits rather than exact numbers.

T1 sequence (Q9NR22 whole entry, canonical isoform): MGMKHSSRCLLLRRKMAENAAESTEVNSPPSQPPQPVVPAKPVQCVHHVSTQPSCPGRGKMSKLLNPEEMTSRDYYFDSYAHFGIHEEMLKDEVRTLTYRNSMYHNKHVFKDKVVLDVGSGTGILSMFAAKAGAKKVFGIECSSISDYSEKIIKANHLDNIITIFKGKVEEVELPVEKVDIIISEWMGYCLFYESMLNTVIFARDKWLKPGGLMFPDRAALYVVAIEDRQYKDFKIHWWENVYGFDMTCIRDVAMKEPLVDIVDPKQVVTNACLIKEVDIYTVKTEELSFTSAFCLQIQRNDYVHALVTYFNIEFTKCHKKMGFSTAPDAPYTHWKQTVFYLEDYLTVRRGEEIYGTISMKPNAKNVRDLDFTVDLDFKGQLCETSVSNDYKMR

As for `CN(CCN)Cc1cn[nH]c1-c1ccc(F)cc1` [Compound 1], in assay [1] (setting [3]), the 30% effect concentration (EC30) fell in the range of 3.01 to 12 µM. Molecule `CNCCN(C)Cc1c[nH]nc1-c1ccc(F)cc1` [Compound 2, N^1-((3-(4-fluorophenyl)-1H-pyrazol-4-yl)methyl)-N^1,N^2-dimethylethane-1,2-diamine] had a half-inhibitory concentration (IC50) in assay [2] of 0.101 to 1 µM. Moreover, the EC30 in assay [1] (RKO, 72 h) is greater than 12 µM. Consider `CN(CCN)Cc1cn(C)nc1-c1ccc(F)cc1` [Compound 3], for which the IC50 in assay [2] is 0.101 to 1 µM. Also, in assay [1] (setting [3]), the EC30 was greater than 12 µM. The molecule `CN(CCN)Cc1cnn(C)c1-c1ccc(F)cc1` [Compound 4] gave an IC50 in assay [2] of 1.01 to 3 µM. Moreover, in assay [1] (RKO, 72 h), the concentration for an effect of 30% (EC30) is greater than 12 µM. Molecule `CCN(CCNC)Cc1c[nH]nc1-c1ccc(F)cc1` [Compound 9] returned an IC50 in assay [2] of 0.101 to 1 µM. Besides, the concentration for an effect of 30% (EC30) in assay [1] (setting [3]) was greater than 12 µM. For `CNCCN(C)Cc1cnn(C)c1-c1ccc(F)cc1` [Compound 10], in that order: 0.101 to 1 µM and greater than 12 µM. For `CNCCN(C)Cc1cn(CC2CCOCC2)nc1-c1ccc(F)cc1` [Compound 11], in assay [2], the half-maximal inhibitory concentration (IC50) was greater than 10 µM. Also, the EC30 in assay [1] (setting [3]) was greater than 12 µM. For `CNCCN(C)Cc1cnn(CC2CCOCC2)c1-c1ccc(F)cc1` [Compound 12], in that order: greater than 10 µM and greater than 12 µM. In assay [2], `CNCCN(C)Cc1c[nH]nc1-c1cccc(N)c1` [Compound 32] showed an IC50 of 1.01 to 3 µM. Further, the EC30 in assay [1] (setting [3]) was greater than 12 µM.

`CNCCN(C)Cc1c[nH]nc1-c1ccc(CC#N)cc1` [Compound 34]: the IC50 in assay [2] was 0.101 to 1 µM. The EC30 in assay [1] (setting [3]) is greater than 12 µM.

The molecule `CNCCN(C)Cc1c[nH]nc1-c1ccccc1O` [Compound 35] came in with a half-maximal inhibitory concentration (IC50) in assay [2] greater than 10 µM. For the same molecule, in assay [1] (setting [3]), the EC30 was greater than 12 µM. The molecule `CNCCN(C)Cc1c[nH]nc1-c1ccccc1Oc1ccccc1` [Compound 36] displayed a half-maximal inhibitory concentration (IC50) in assay [2] greater than 10 µM. The 30% effect concentration (EC30) in assay [1] (setting [3]) is greater than 12 µM.

As to `CNCCN(C)Cc1c[nH]nc1-c1cccc(OC(F)(F)F)c1` [Compound 39], the IC50 in assay [2] is 0.101 to 1 µM. In assay [1] (setting [3]), the 30% effect concentration (EC30) is greater than 12 µM. For `CNCCN(C)Cc1c[nH]nc1-c1ccccc1NS(C)(=O)=O` [Compound 41], in that order: greater than 10 µM and greater than 12 µM. In the case of `CNCCN(C)Cc1c[nH]nc1-c1cccc(NC(C)=O)c1` [Compound 42], the IC50 in assay [2] was 1.01 to 3 µM. Besides, the concentration for an effect of 30% (EC30) in assay [1] (setting [3]) was greater than 12 µM. For `CNCCN(C)Cc1c[nH]nc1-c1cccc(C(C)=O)c1` [Compound 44] the same measures were 0.101 to 1 µM and greater than 12 µM.

Molecule `CNCCN(C)Cc1c[nH]nc1-c1ccc(C(=O)c2ccccc2)cc1` [Compound 45] displayed a concentration for half-maximal inhibition (IC50) in assay [2] of 0.101 to 1 µM. In addition, the EC30 in assay [1] (setting [3]) was less than 3 µM. `CNCCN(C)Cc1c[nH]nc1-c1ccccc1-c1ccccc1` [Compound 46] came in with an IC50 in assay [2] greater than 10 µM. For the same molecule, in assay [1] (setting [3]), the concentration for an effect of 30% (EC30) was greater than 12 µM. For `CNCCN(C)Cc1c[nH]nc1-c1ccc(-c2ccccc2)cc1` [Compound 47] the same measures were less than 0.1 µM and less than 3 µM.

Regarding `CNCCN(C)Cc1c[nH]nc1-c1ccccc1F` [Compound 48], the concentration for half-maximal inhibition (IC50) in assay [2] was 1.01 to 3 µM. In addition, the EC30 in assay [1] (setting [3]) was greater than 12 µM. For `CNCCN(C)Cc1c[nH]nc1-c1ccc(F)cc1F` [Compound 49] the same measures were 0.101 to 1 µM and greater than 12 µM. In assay [2], `CNCCN(C)Cc1c[nH]nc1-c1cc(F)ccc1F` [Compound 50] yielded an IC50 of 1.01 to 3 µM. Further, the 30% effect concentration (EC30) in assay [1] (setting [3]) is greater than 12 µM. `CNCCN(C)Cc1c[nH]nc1-c1ccc(F)c(F)c1` [Compound 51] displayed an IC50 in assay [2] of 0.101 to 1 µM. The concentration for an effect of 30% (EC30) in assay [1] (setting [3]) was greater than 12 µM. For `CNCCN(C)Cc1c[nH]nc1-c1ccc(OC)c(F)c1` [Compound 52], the IC50 in assay [2] was in the range of 0.101 to 1 µM. The EC30 in assay [1] (setting [3]) was greater than 12 µM.

In turn, `CNCCN(C)Cc1c[nH]nc1-c1cc(Cl)ccc1OC` [Compound 53] had a 50% inhibitory concentration (IC50) in assay [2] greater than 10 µM. For the same molecule, the 30% effect concentration (EC30) in assay [1] (setting [3]) is greater than 12 µM. For `CNCCN(C)Cc1c[nH]nc1-c1cccc(OC)c1OC` [Compound 54] the same measures were 3.01 to 10 µM and greater than 12 µM. For `CNCCN(C)Cc1c[nH]nc1-c1ccc(OC)cc1OC` [Compound 55] the same measures were 3.01 to 10 µM and greater than 12 µM. For `CNCCN(C)Cc1c[nH]nc1-c1c(OC)cccc1OC` [Compound 56] the same measures were greater than 10 µM and greater than 12 µM. `CNCCN(C)Cc1c[nH]nc1-c1cccc2ccccc12` [Compound 57] yielded an IC50 in assay [2] of 0.101 to 1 µM. In addition, in assay [1] (setting [3]), the concentration for an effect of 30% (EC30) was greater than 12 µM. For `CNCCN(C)Cc1c[nH]nc1-c1ccc2ccccc2c1` [Compound 58] the same measures were 0.101 to 1 µM and greater than 12 µM. For `CNCCN(C)Cc1cn(CCC(O)CO)nc1-c1ccc(F)cc1` (stereo not shown) [Compound 59], in that order: 3.01 to 10 µM and greater than 12 µM. Take `CCNCCN(C)Cc1c[nH]nc1-c1ccc(F)cc1` [Compound 60]: the IC50 in assay [2] was in the range of 1.01 to 3 µM. Further, in assay [1] (setting [3]), the EC30 was greater than 12 µM.

In assay [2], `COCCn1cc(CN(C)CCN(C)C)c(-c2ccc(F)cc2)n1` [Compound 61] came in with a 50% inhibitory concentration (IC50) greater than 10 µM. In assay [1] (setting [3]), the EC30 was greater than 12 µM.

`CCN(CCN)Cc1c[nH]nc1-c1ccc(F)cc1` [Compound 62]: the concentration for half-maximal inhibition (IC50) in assay [2] was 0.101 to 1 µM. In addition, the 30% effect concentration (EC30) in assay [1] (setting [3]) is greater than 12 µM. In the case of `CCCN(CCN)Cc1c[nH]nc1-c1ccc(F)cc1` [Compound 63], the IC50 in assay [2] was in the range of 3.01 to 10 µM. Moreover, the EC30 in assay [1] (setting [3]) was greater than 12 µM. As for `COCCn1ncc(CN(C)CCN(C)C)c1-c1ccc(F)cc1` [Compound 64], in assay [2], the 50% inhibitory concentration (IC50) is greater than 10 µM. The molecule further showed a 30% effect concentration (EC30) in assay [1] (RKO, 72 h) greater than 12 µM.

Take `CN(CCN)Cc1cnn(CCO)c1-c1ccc(F)cc1` [Compound 65]: the concentration for half-maximal inhibition (IC50) in assay [2] lay within 3.01 to 10 µM. The 30% effect concentration (EC30) in assay [1] (setting [3]) is greater than 12 µM. As to `CN(CCN)Cc1cn(CCO)nc1-c1ccc(F)cc1` [Compound 66], the 50% inhibitory concentration (IC50) in assay [2] lay in the range of 3.01 to 10 µM. In addition, the concentration for an effect of 30% (EC30) in assay [1] (setting [3]) was greater than 12 µM.

As for `CC(C)Oc1ccc(-c2n[nH]cc2CN(C)CCN)cc1` [Compound 67], the EC30 in assay [1] (setting [3]) is greater than 12 µM. Regarding `CN(CCN)Cc1c[nH]nc1-c1ccc(C#N)cc1` [Compound 68], the half-inhibitory concentration (IC50) in assay [2] lay in the range of 0.101 to 1 µM. The EC30 in assay [1] (setting [3]) was greater than 12 µM.

Consider `CN(CCN)Cc1n[nH]cc1-c1ccc(F)cc1` [Compound 69], for which, in assay [2], the IC50 is 1.01 to 3 µM. Besides, in assay [1] (setting [3]), the EC30 is 3.01 to 12 µM. For `CN(CCN)Cc1c[nH]nc1-c1cccc(C#N)c1` [Compound 70], in that order: 1.01 to 3 µM and greater than 12 µM. For `CN(CCN)Cc1c[nH]nc1-c1cccc(F)c1` [Compound 71] the same measures were 0.101 to 1 µM and 3.01 to 12 µM. In the case of `CN(CCN)Cc1c[nH]nc1-c1ccccc1F` [Compound 72], in assay [2], the half-inhibitory concentration (IC50) was in the range of 3.01 to 10 µM. In assay [1] (setting [3]), the EC30 is greater than 12 µM. For `CN(CCN)Cc1c[nH]nc1-c1ccccc1` [Compound 73] the same measures were 0.101 to 1 µM and greater than 12 µM. For `CN(CCN)Cc1c[nH]nc1-c1ccc(C(C)(C)C)cc1` [Compound 74] the same measures were 0.101 to 1 µM and 3.01 to 12 µM. For `CC(C)N(CCN)Cc1c[nH]nc1-c1ccc(F)cc1` [Compound 75], in that order: 1.01 to 3 µM and greater than 12 µM. Regarding `CN(CCN)Cc1cn(CC(O)CO)nc1-c1ccc(F)cc1` (stereo not shown) [Compound 76], the IC50 in assay [2] was greater than 10 µM. Further, the EC30 in assay [1] (setting [3]) is greater than 12 µM. For `CN(CCN)Cc1cn(C2COC2)nc1-c1ccc(F)cc1` [Compound 77], the IC50 in assay [2] was 1.01 to 3 µM. For the same molecule, in assay [1] (RKO, 72 h), the EC30 was greater than 12 µM. `CC(C)Oc1ccc(-c2n[nH]cc2CN(C)CCN)cc1Cl` [Compound 168]: the 30% effect concentration (EC30) in assay [1] (setting [3]) was less than 3 µM.
